Assay results taken from PMC5053523, “In Vitro Antibacterial Activity of Rhodanine Derivatives against Pathogenic Clinical Isolates” (PLoS ONE, 2016).
Like-named read-outs stand apart in the source and are kept apart here.

Legend:
[1] = system: vancomycin resistant enterococci (VRE); assay: Broth microdilution MIC50/MIC90, VRE panel; assay type: cell-based; settings: 10 VRE strains; for MIC90: read-out: MIC 90; for MIC50: read-out: MIC 50
Salmonella Typhimurium = assay: MIC with/without PMBN, Salmonella Typhimurium; assay type: cell-based
Description: (§1) The MIC of the rhodanines and control antibiotics, in the presence of a sub-inhibitory concentration of colistin or polymixin B nonapeptide (PMBN), against Gram-negative bacteria was evaluated as described before. The antibacterial activity of the rhodanines was further investigated against E. coli SM1411Δ acrAB, a strain that is deficient in the multidrug-resistant AcrAB efflux pump, as described before.

[2] = system: Vancomycin Resistant Staphylococcus aureus (VRSA); assay: Broth microdilution MIC/MBC, VRSA; assay type: cell-based; settings: for MIC50 / MIC90: 15 VRSA strains; for MIC50: read-out: MIC 50; for MIC90: read-out: MIC 90; for MBC / MIC: VRSA
Clostridium difficile = assay: MIC against Clostridium difficile, anaerobic broth dilution; assay type: cell-based; settings: Clostridioides difficile
Description: Clinical isolates of C. difficile were cultured on anaerobic blood agar and incubated anaerobically using container gas pack system at 37° C for 48 hours. The colonies were then suspended in pre-reduced phosphate buffered saline (PBS) and adjusted to 0.5 McFarland standard then diluted 1:300 in pre-reduced Supplemented Brain Heart Infusion broth. The bacterial suspension was then transferred to each well of 96-well plates, the drugs were added to the first row of wells in the required concentrations and serially diluted along the plates. The plates were incubated again anaerobically using container gas pack system at 37° C for 48 hours. The (MIC) recorded was the lowest concentration of the drug showing no visible growth of the bacteria.

Bacillus anthracis = assay: microbe, parasite or virus in culture; assay type: cell-based
Klebsiella pneumoniae = assay: MIC with/without PMBN, Klebsiella pneumoniae; assay type: cell-based
Description: as §1

MRSA USA300 = assay: MIC against MRSA USA300 with and without 4% human serum albumin; assay type: cell-based, Staphylococcus aureus; settings: Staphylococcus aureus, read-out: MIC against MRSA USA300
How it was run: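 MIC measured in tryptic soy broth spiked with 4% HSA and without it, using CLSI broth microdilution on MRSA USA300. Value reported is the lowest concentration preventing bacterial growth.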

B. licheniformis = assay: Broth microdilution MIC/MBC, B. licheniformis; assay type: cell-based; settings: Bacillus licheniformis; for MBC: read-out: MBC; for MIC: read-out: MIC
Acinetobacter baumannii [3] = assay: MIC with/without PMBN, Acinetobacter baumannii; assay type: cell-based
Description: as §1

[4] = system: vancomycin resistant enterococci (VRE) E. faecalis; assay: Broth microdilution MIC/MBC, VRE E. faecalis; assay type: cell-based; settings: for MIC: read-out: MIC
Acinetobacter baumannii [5] = assay: Broth microdilution MIC, Acinetobacter baumannii; assay type: cell-based
[6] = Salmonella Typhimurium ATCC 700720, PMBN (+) 4 μg/mL, read-out: MIC
[7] = Salmonella enterica, ATCC 700720 / TYPHIMURIUM
[8] = C. difficile Isolate-1 NR-13427
[9] = C. difficile Toxigenic Strain P8 NR-32888
[10] = Klebsiella pneumoniae ATCC BAA 1706, PMBN (+) 4 μg/mL
[11] = Klebsiella pneumoniae ATCC BAA 2146, PMBN (+) 4 μg/mL
[12] = NCIB9375, B. licheniformis Gibson 46 (NCIB 9375) NR-2494
[13] = NRS712, B. licheniformis NRS 712 NR-2499
[14] = Acinetobacter baumannii ATCC BAA747, PMBN (+) 4 μg/mL, read-out: MIC
[15] = Acinetobacter baumannii ATCC BAA19606, PMBN (+) 4 μg/mL, read-out: MIC
[16] = Acinetobacter baumannii, ATCCBAA747
[17] = Acinetobacter baumannii, ATCCBAA19606
[18] = E. faecalis NR31972 Strain SF 28073

O=C(O)[C@H](Cc1ccccc1)N1C(=O)/C(=C/c2cccc(Oc3ccc(Cl)c(Cl)c3)c2)SC1=S [Rh 1]
> 128 µM: MIC (Salmonella Typhimurium; [7]) | MIC (Klebsiella pneumoniae; Klebsiella pneumoniae, BAA1706) | MIC (Klebsiella pneumoniae; Klebsiella pneumoniae, BAA2146) | MIC (Acinetobacter baumannii [3]; [16]) | MIC (Acinetobacter baumannii [3]; [17]) | MIC (Acinetobacter baumannii [5]; ATCC13345) | MIC (Acinetobacter baumannii [5]; ATCC17786)
8 µM: MIC90 ([1]; Enterococcus, VRE) | MIC50 ([1]; Enterococcus) | MIC50 [2] | MIC90 [2] | MBC ([2]; VRSA 1, read-out: MBC) | MIC ([2]; VRSA 1, read-out: MIC) | MBC ([2]; VRSA 2, read-out: MBC) | MIC ([2]; VRSA 2, read-out: MIC) | MIC ([2]; VRSA 3a, read-out: MIC) | MBC ([2]; VRSA 3b, read-out: MBC) | MIC ([2]; VRSA 3b, read-out: MIC) | MBC ([2]; VRSA 4, read-out: MBC) | MIC ([2]; VRSA 4, read-out: MIC) | MIC ([2]; VRSA 5, read-out: MIC) | MBC ([2]; VRSA 6, read-out: MBC) | MBC ([2]; VRSA 7, read-out: MBC) | MIC ([2]; VRSA 7, read-out: MIC) | MIC ([2]; VRSA 9, read-out: MIC) | MIC ([2]; VRSA 10, read-out: MIC) | MIC ([2]; VRSA 11a, read-out: MIC) | MIC ([2]; VRSA 11b, read-out: MIC) | MIC ([2]; VRSA 12, read-out: MIC) | MIC ([2]; VRSA 13, read-out: MIC) | MIC (MRSA USA300; Media TSB) | MBC ([4]; E. faecalis ERV103 HM-934) | MIC ([4]; E. faecalis ERV103 HM-934) | MIC [4, 18] | MBC ([4]; E. faecalis R712 HM-335) | MBC ([4]; E. faecalis S613 HM-334) | MIC ([4]; E. faecalis S613 HM-334) | MBC ([4]; E. faecalis TX0104 HM-201) | MIC ([4]; E. faecalis TX0104 HM-201)
16 µM: MBC ([2]; VRSA 3a, read-out: MBC) | MBC ([2]; VRSA 5, read-out: MBC) | MBC ([2]; VRSA 11a, read-out: MBC)
>64 µM: MIC (Klebsiella pneumoniae; [10]) | MIC (Klebsiella pneumoniae; [11]) | MIC (Acinetobacter baumannii [3]; [14]) | MIC (Acinetobacter baumannii [3]; [15])
2 µM: MIC (Clostridium difficile; C. difficile HM-745) | MBC (Bacillus anthracis; Bacillus anthracis AMES35) | MIC (Bacillus anthracis; Bacillus anthracis AMES35) | MBC (Bacillus anthracis; Bacillus anthracis UM23) | MIC (Bacillus anthracis; Bacillus anthracis UM23) | MBC (Bacillus anthracis; Bacillus anthracis Weybridge) | MIC (Bacillus anthracis; Bacillus anthracis Weybridge) | MBC (B. licheniformis; [12]) | MIC (B. licheniformis; [12])
4 µM: MIC ([2]; VRSA 6, read-out: MIC) | MIC ([2]; VRSA 8, read-out: MIC) | MIC (Clostridium difficile; C. difficile HM-88) | MIC (Clostridium difficile; C. difficile HM-746) | MIC (Clostridium difficile; [8]) | MIC (Clostridium difficile; [9]) | MBC (B. licheniformis; [13]) | MIC (B. licheniformis; [13]) | MIC ([4]; E. faecalis R712 HM-335)
32 µM: MBC ([2]; VRSA 8, read-out: MBC) | MBC ([2]; VRSA 9, read-out: MBC) | MBC ([2]; VRSA 10, read-out: MBC) | MBC ([2]; VRSA 11b, read-out: MBC) | MBC ([2]; VRSA 12, read-out: MBC) | MBC ([2]; VRSA 13, read-out: MBC) | MBC [4, 18]
>128 µM: MIC (Salmonella Typhimurium; [6])
> 64 µM: MIC (MRSA USA300; 24 h, Media TSB + 4% HSA)

O=C(O)[C@H](Cc1ccccc1)N1C(=O)/C(=C/c2cccc(-c3ccc(Cl)c(Cl)c3)c2)SC1=S [Rh 2]
32 µM: MBC ([2]; VRSA 7, read-out: MBC) | MBC ([2]; VRSA 9, read-out: MBC) | MBC ([2]; VRSA 10, read-out: MBC) | MBC ([2]; VRSA 12, read-out: MBC) | MBC [4, 18]
8 µM: MIC90 ([1]; Enterococcus, VRE) | MBC ([2]; VRSA 1, read-out: MBC) | MBC ([2]; VRSA 8, read-out: MBC) | MIC ([2]; VRSA 9, read-out: MIC) | MIC (Clostridium difficile; [9])
64 µM: MBC ([2]; VRSA 5, read-out: MBC) | MBC ([2]; VRSA 11b, read-out: MBC) | MBC ([2]; VRSA 13, read-out: MBC)
> 128 µM: MIC (Salmonella Typhimurium; [7]) | MIC (Klebsiella pneumoniae; Klebsiella pneumoniae, BAA1706) | MIC (Klebsiella pneumoniae; Klebsiella pneumoniae, BAA2146) | MIC (Acinetobacter baumannii [3]; [16]) | MIC (Acinetobacter baumannii [3]; [17]) | MIC (Acinetobacter baumannii [5]; ATCC13345) | MIC (Acinetobacter baumannii [5]; ATCC17786)
2 µM: MIC (Clostridium difficile; C. difficile HM-745) | MIC (Clostridium difficile; C. difficile HM-746) | MIC (Clostridium difficile; [8]) | MBC (Bacillus anthracis; Bacillus anthracis AMES35) | MIC (Bacillus anthracis; Bacillus anthracis AMES35) | MBC (Bacillus anthracis; Bacillus anthracis UM23) | MIC (Bacillus anthracis; Bacillus anthracis UM23) | MBC (Bacillus anthracis; Bacillus anthracis Weybridge) | MIC (Bacillus anthracis; Bacillus anthracis Weybridge) | MBC (B. licheniformis; [12]) | MIC (B. licheniformis; [12])
16 µM: MBC ([2]; VRSA 3a, read-out: MBC) | MBC ([2]; VRSA 6, read-out: MBC)
>128 µM: MIC (Salmonella Typhimurium; [6])
> 64 µM: MIC (MRSA USA300; 24 h, Media TSB + 4% HSA)
>64 µM: MIC (Klebsiella pneumoniae; [10]) | MIC (Klebsiella pneumoniae; [11]) | MIC (Acinetobacter baumannii [3]; [14]) | MIC (Acinetobacter baumannii [3]; [15])
4 µM: MIC90 [1] | MIC50 ([1]; Enterococcus) | MIC50 [2] | MIC90 [2] | MIC ([2]; VRSA 1, read-out: MIC) | MBC ([2]; VRSA 2, read-out: MBC) | MIC ([2]; VRSA 2, read-out: MIC) | MIC ([2]; VRSA 3a, read-out: MIC) | MBC ([2]; VRSA 3b, read-out: MBC) | MIC ([2]; VRSA 3b, read-out: MIC) | MBC ([2]; VRSA 4, read-out: MBC) | MIC ([2]; VRSA 4, read-out: MIC) | MIC ([2]; VRSA 5, read-out: MIC) | MIC ([2]; VRSA 6, read-out: MIC) | MIC ([2]; VRSA 7, read-out: MIC) | MIC ([2]; VRSA 8, read-out: MIC) | MIC ([2]; VRSA 10, read-out: MIC) | MBC ([2]; VRSA 11a, read-out: MBC) | MIC ([2]; VRSA 11a, read-out: MIC) | MIC ([2]; VRSA 11b, read-out: MIC) | MIC ([2]; VRSA 12, read-out: MIC) | MIC ([2]; VRSA 13, read-out: MIC) | MIC (Clostridium difficile; C. difficile HM-88) | MIC (MRSA USA300; Media TSB) | MBC (B. licheniformis; [13]) | MIC (B. licheniformis; [13]) | MBC ([4]; E. faecalis ERV103 HM-934) | MIC ([4]; E. faecalis ERV103 HM-934) | MIC [4, 18] | MBC ([4]; E. faecalis R712 HM-335) | MIC ([4]; E. faecalis R712 HM-335) | MBC ([4]; E. faecalis S613 HM-334) | MIC ([4]; E. faecalis S613 HM-334) | MBC ([4]; E. faecalis TX0104 HM-201) | MIC ([4]; E. faecalis TX0104 HM-201)
